What all share (format): functional
In assay [1] the test system is Pseudomonas aeruginosa. In words: Inhibition of growth of Pseudomonas aeruginosa at 0.622 mg/ml after 48 hrs. The conditions noted are these: read-out: IZ.
The subject of assay [2] is Thanatephorus cucumeris. In words: Antifungal activity against Rhizoctonia solani at 1 mmol after 48 hrs relative to control.
The subject of assay [3] is Candida albicans. In words: Antimicrobial activity against Candida albicans at 0.622 mg/ml after 48 hrs. The following applies: read-out: IZ.
Assay [4] concerns Curvularia lunata. Briefly: Antifungal activity against Curvularia lunata at 1 mmol after 48 hrs.
For assay [5], the system named is Pseudomonas aeruginosa. Briefly: Inhibition of growth of Pseudomonas aeruginosa at 0.622 mg/ml after 48 hrs relative to control.
Assay [6] deals with Candida albicans. Briefly: Antimicrobial activity against Candida albicans at 0.622 mg/ml after 48 hrs relative to control.
In assay [7] the test system is Pseudomonas aeruginosa. In words: Antimicrobial activity against Pseudomonas aeruginosa at 1 mmol after 48 hrs.
Assay [8] relates to Staphylococcus epidermidis. Briefly: Antimicrobial activity against Staphylococcus epidermidis at 1 mmol after 48 hrs.
The test system of assay [9] is Thanatephorus cucumeris. Briefly: Antifungal activity against Rhizoctonia solani at 1 mmol after 48 hrs.
The test system of assay [10] is Curvularia lunata. In words: Antifungal activity against Curvularia lunata at 1 mmol after 48 hrs relative to control.
For assay [11], the system named is Candida albicans. In words: Antimicrobial activity against Candida albicans at 1 mmol after 48 hrs.
Assay [12] has as its system Staphylococcus epidermidis. Briefly: Inhibition of growth of Staphylococcus epidermidis at 0.622 mg/ml after 48 hrs. The following applies: read-out: IZ.
Assay [13] has as its system Staphylococcus epidermidis. In words: Inhibition of growth of Staphylococcus epidermidis at 0.622 mg/ml after 48 hrs relative to control.
For assay [14], the system named is Staphylococcus epidermidis. Briefly: Antimicrobial activity against Staphylococcus epidermidis at 1 mmol after 48 hrs relative to control.
The subject of assay [15] is Pseudomonas aeruginosa. Briefly: Antimicrobial activity against Pseudomonas aeruginosa at 1 mmol after 48 hrs relative to control.
For assay [16], the system named is Candida albicans. In words: Antimicrobial activity against Candida albicans at 1 mmol after 48 hrs relative to control.
Assay [17] concerns Thanatephorus cucumeris. In words: Antifungal activity against Rhizoctonia solani at 0.652 mg/ml after 48 hrs. The conditions noted are these: read-out: IZ.
For assay [18], the system named is Curvularia lunata. Briefly: Antifungal activity against Curvularia lunata at 0.652 mg/ml after 48 hrs relative to control.
For assay [19], the system named is Thanatephorus cucumeris. In words: Antifungal activity against Rhizoctonia solani at 0.652 mg/ml after 48 hrs relative to control.
For assay [20], the system named is Curvularia lunata. In words: Antifungal activity against Curvularia lunata at 0.652 mg/ml after 48 hrs. The following applies: read-out: IZ.

Where only a bound is given, the exact number is not on record here.

The record followed here is ChEMBL document CHEMBL1146176, “Synthesis and anti-microbial activity of pyrazolylbisindoles--promising anti-fungal compounds” (2006).

The term Inhibition denotes the drop in the measured response relative to a control, in per cent. A high value points to a strong effect. A word on the inhibition: it is how much of the control response was suppressed.

Regarding `Brc1ccc2[nH]cc(C(c3cn(-c4ccccc4)nc3-c3ccccc3)c3c[nH]c4ccc(Br)cc34)c2c1`, the zone of inhibition at 622 µg/mL in assay [1] was found to be 18 mm; in [3], 27 mm; in assay [12], 21 mm. For the same molecule, the Inhibition in assay [2] was 41.1%; in assay [10], 47.8%; in [13], no more than 23.3%. The “inhibition zone (IZ)” value stood at 4.7 cm in assay [4]; 1.8 cm in [7]; 2.1 cm in [8]; 5.3 cm in assay [9]; 2.7 cm in [11]. The inhibition at 622 µg/mL worked out at 20% in assay [5] and 30% in assay [6].
As to `COc1ccc(-c2nn(-c3ccccc3)cc2C(c2c[nH]c3ccc([N+](=O)[O-])cc23)c2c[nH]c3ccc([N+](=O)[O-])cc23)cc1`, the Inhibition is 0% in [14]; 53.3% in [2]; 0% in assay [15]; 0% in [16]; 84.4% in assay [10]. The “inhibition zone (IZ)” value in [4] is recorded as 1.4 cm; in [7], 0 cm; in [8] it was 0 cm; in assay [9], 4.8 cm; in [11], 0 cm.
For `Clc1ccc(-c2nn(-c3ccccc3)cc2C(c2c[nH]c3ccc(Br)cc23)c2c[nH]c3ccc(Br)cc23)cc1`, the Inhibition in assay [14] is recorded as 0%; in assay [2], 17.8%; in [15] it was 0%; in assay [16] it was 6.7%; in assay [10], 15.6%. Besides, the “inhibition zone (IZ)” value in [4] is 7.6 cm; in [7] it was 0 cm; in [8] it was 0 cm; in assay [9] it was 7.4 cm; in assay [11] it was 0.6 cm.
For the molecule `COc1ccc(-c2nn(-c3ccccc3)cc2C(c2c[nH]c3ccc(Br)cc23)c2c[nH]c3ccc(Br)cc23)cc1`, the results for the Inhibition in assay [14], in assay [15] and in [16] were 0%, 15.6% and 0%, respectively. The zone of inhibition at 652 µg/mL in assay [17] worked out at 5 mm; in [20] it was 3 mm. For the same molecule, the inhibition at 652 µg/mL in assay [18] was 96.7%; in assay [19], 93.9%. The results for the “inhibition zone (IZ)” value in [7], in assay [8] and in assay [11] were 1.4 cm, 0 cm and 0 cm, respectively.
With `O=[N+]([O-])c1ccc2[nH]cc(C(c3cn(-c4ccccc4)nc3-c3ccccc3)c3c[nH]c4ccc([N+](=O)[O-])cc34)c2c1`, the Inhibition in assay [14] stood at 0%; in assay [2], 0%; in assay [15], 14.4%; in [16], 0%; in [10] it was 0%. The “inhibition zone (IZ)” value is on record as 9 cm in assay [4]; 1.3 cm in assay [7]; 0 cm in assay [8]; 9 cm in assay [9]; 0 cm in assay [11].
In the case of `CCn1c(-c2ccccc2)c(C(c2cn(-c3ccccc3)nc2-c2ccc(Cl)cc2)c2c(-c3ccccc3)n(CC)c3ccccc23)c2ccccc21`, the Inhibition amounted to 15.6% in assay [14]; 18.8% in assay [2]; 15.6% in assay [15]; 5.6% in assay [16]; 42.2% in assay [10]. The “inhibition zone (IZ)” value in [4] is listed as 5.2 cm; in assay [7] it was 1.4 cm; in assay [8] it was 1.4 cm; in assay [9], 7.3 cm; in [11] it was 0.5 cm.
With `CCn1c(-c2ccccc2)c(C(c2cn(-c3ccccc3)nc2-c2ccc(Br)cc2)c2c(-c3ccccc3)n(CC)c3ccccc23)c2ccccc21`, the Inhibition in assay [14] turned out to be 7.9%; in [2] it was 16.7%; in assay [15], 0%; in assay [16] it was 0%; in assay [10], 13.3%. Besides, the “inhibition zone (IZ)” value in assay [4] came to 7.8 cm; in [7] it was 0 cm; in [8], 0.7 cm; in assay [9], 7.5 cm; in assay [11], 0 cm.
Turning to `Brc1ccc(-c2nn(-c3ccccc3)cc2C(c2c[nH]c3ccc(Br)cc23)c2c[nH]c3ccc(Br)cc23)cc1`, the Inhibition in [14] was 0%; in assay [2], 81.1%; in assay [15], 16.7%; in assay [16] it was 24.4%; in [10], 91.1%. The “inhibition zone (IZ)” value in assay [4] is 0.8 cm; in assay [7], 1.5 cm; in assay [8] it was 0 cm; in [9], 1.7 cm; in [11], 2.2 cm.
